Activity calls are given as the source filed them.
Experiments:
[1] = target: Protein Wnt-3a (Mus musculus, UniProt P27467); assay: Wnt3a-driven reporter signaling inhibition, dose response, selectivity assay for Gli-SUFU antagonist project, Wnt-LIGHT cells, luminescence (AID 651570); type: functional; settings: read-out: IC50_Mean;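 note: Wnt-LIGHT reporter cells stimulated with conditioned medium from Wnt3a-producing cells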
[2] = inhibitors of intracellular T. cruzi replication, confirmation, NIH3T3 host cells, beta-gal luminescence (AID 2044); type: functional, cell-based;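 note: intracellular parasites grown in NIH/3T3 mouse fibroblasts as host cells; luminescent beta-galactosidase reporter signal from transgenic T. cruzi replicating inside host cells; inhibitors lower the luminescence signal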
[3] = tested on: INS1; assay: beta cell apoptosis inhibitors, cytokine rescue, dose response, luminescence, retest (AID 449756); type: functional, cell-based; settings: Rattus norvegicus;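 note: cell death triggered by IL-1 beta plus TNF-alpha plus IFN-gamma mixture; protective hits raise ATP signal compared with cytokine alone wells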
[4] = cytotoxicity toward NIH3T3 fibroblasts, dose response, counter-screen, cell-based, ATP luminescence, mouse fibroblasts (AID 2010); type: functional;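 note: cells exposed to compound for about 90 hours before reading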
[5] = target: Dual specificity protein phosphatase 3 (Homo sapiens, UniProt P51452); assay: VHR phosphatase inhibition, dose response, selectivity assay for STEP inhibitor project, biochemical (AID 602374); type: functional; settings: read-out: IC50_Mean
[6] = target: Tyrosine-protein phosphatase non-receptor type 11 (Homo sapiens, UniProt Q06124); assay: SHP2 phosphatase inhibition, dose response, selectivity assay for STEP inhibitor project, biochemical (AID 602367); type: functional; settings: read-out: IC50_Mean
[7] = target: Tyrosine-protein phosphatase non-receptor type 5 (Homo sapiens, UniProt P54829); assay: STEP phosphatase inhibitors, confirmation, biochemical, fluorescence intensity, uHTS hits (AID 602372); type: functional; settings: read-out: IC50_Mean
[8] = target: T1, Methionyl-tRNA synthetase, putative (Trypanosoma brucei brucei, UniProt Q38C91); type: functional, Trypanosoma brucei brucei strain 927/4 GUTat10.1
T1 sequence (Q38C91 whole entry): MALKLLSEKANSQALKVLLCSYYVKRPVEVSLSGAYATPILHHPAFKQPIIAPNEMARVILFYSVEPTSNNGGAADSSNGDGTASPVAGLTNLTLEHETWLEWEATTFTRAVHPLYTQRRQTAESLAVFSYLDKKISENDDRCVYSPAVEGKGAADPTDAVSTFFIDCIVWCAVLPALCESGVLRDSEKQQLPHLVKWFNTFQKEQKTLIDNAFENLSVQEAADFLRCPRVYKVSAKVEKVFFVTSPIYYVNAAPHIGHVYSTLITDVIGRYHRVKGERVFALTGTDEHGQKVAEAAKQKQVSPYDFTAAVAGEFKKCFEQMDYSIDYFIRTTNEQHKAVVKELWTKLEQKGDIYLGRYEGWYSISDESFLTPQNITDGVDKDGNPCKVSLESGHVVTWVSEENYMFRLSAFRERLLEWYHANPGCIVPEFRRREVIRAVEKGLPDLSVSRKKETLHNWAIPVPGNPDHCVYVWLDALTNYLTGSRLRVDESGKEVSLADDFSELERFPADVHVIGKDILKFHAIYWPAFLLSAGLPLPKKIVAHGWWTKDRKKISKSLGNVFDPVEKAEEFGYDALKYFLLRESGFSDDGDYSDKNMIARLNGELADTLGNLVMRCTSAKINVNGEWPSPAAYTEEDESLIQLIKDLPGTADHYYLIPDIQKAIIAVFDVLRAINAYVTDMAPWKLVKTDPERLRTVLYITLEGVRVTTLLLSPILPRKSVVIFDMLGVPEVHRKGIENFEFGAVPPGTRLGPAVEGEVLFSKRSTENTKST

[9] = Counterscreen for inhibitors of Trypanosoma brucei methionyl tRNA synthetase (MetRS): Luminescence-based cell-based high throughput dose response assay to identify compounds that are cytotoxic to Jurkat human T lymphocyte cells.; type: functional
[10] = target: T1, Methionyl-tRNA synthetase, putative; type: functional, Trypanosoma brucei brucei strain 927/4 GUTat10.1; remark: listed apart in the source
[11] = target: ADP-ribosylation factor GTPase-activating protein 1 (Rattus norvegicus, UniProt Q62848); assay: Fluorescence polarization-based biochemical high throughput dose response screening assay to identify inhibitors of ADP-ribosylation factor GTPase activating protein 1 (ARFGAP1).; type: functional
[12] = target: Steroidogenic factor 1 (Homo sapiens, UniProt Q13285); assay: Counterscreen for inverse agonists of the liver receptor homolog-1 (LRH-1; NR5A2): Luminescence-based cell-based high throughput dose response assay to identify inverse agonists of the Steroidogenic Factor 1 Nuclear Receptor (SF1; NR5A1).; type: functional
[13] = StAR promoter reporter inhibition counter-screen, dose response, counter-screen for LRH-1 inverse agonist project, cell-based, luminescence, luciferase reporter (AID 651969); type: functional
[14] = target: Nuclear receptor subfamily 5 group A member 2 (Homo sapiens, UniProt O00482); type: functional, cell-based;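 note: HEK293T cells transfected with LRH-1 and a StAR promoter luciferase reporter; potency for inhibitors that lower LRH-1 driven reporter light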
[15] = target: T2, Carboxy-terminal domain RNA polymerase II polypeptide A small phosphatase 1 (Homo sapiens, UniProt Q9GZU7); assay: inhibitors of CTDSP1, concentration-response testing, biochemical assay, absorbance-based, actives from ultra-high-throughput screening (AID 540297); type: functional
T2 sequence (Q9GZU7 whole entry): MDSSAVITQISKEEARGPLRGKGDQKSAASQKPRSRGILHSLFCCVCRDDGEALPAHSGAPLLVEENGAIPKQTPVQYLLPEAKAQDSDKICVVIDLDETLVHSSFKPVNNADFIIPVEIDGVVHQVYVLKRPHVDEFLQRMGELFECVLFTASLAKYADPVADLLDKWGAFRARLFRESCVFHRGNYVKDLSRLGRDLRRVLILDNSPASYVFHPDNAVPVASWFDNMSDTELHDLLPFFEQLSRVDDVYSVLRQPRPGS

[16] = target: DNA (cytosine-5)-methyltransferase 1 (Homo sapiens, UniProt P26358); assay: DNMT1 methyltransferase inhibitors, confirmation, biochemical, fluorescent molecular beacon (AID 602386); type: functional
[17] = target: T3, Rac GTPase-activating protein 1 (Homo sapiens, UniProt Q9H0H5); assay: MgcRacGAP GTPase-activating activity inhibitors, confirmation, biochemical, ADP Hunter fluorescence, primary and confirmatory (AID 624330); type: functional
T3 sequence (Q9H0H5 whole entry): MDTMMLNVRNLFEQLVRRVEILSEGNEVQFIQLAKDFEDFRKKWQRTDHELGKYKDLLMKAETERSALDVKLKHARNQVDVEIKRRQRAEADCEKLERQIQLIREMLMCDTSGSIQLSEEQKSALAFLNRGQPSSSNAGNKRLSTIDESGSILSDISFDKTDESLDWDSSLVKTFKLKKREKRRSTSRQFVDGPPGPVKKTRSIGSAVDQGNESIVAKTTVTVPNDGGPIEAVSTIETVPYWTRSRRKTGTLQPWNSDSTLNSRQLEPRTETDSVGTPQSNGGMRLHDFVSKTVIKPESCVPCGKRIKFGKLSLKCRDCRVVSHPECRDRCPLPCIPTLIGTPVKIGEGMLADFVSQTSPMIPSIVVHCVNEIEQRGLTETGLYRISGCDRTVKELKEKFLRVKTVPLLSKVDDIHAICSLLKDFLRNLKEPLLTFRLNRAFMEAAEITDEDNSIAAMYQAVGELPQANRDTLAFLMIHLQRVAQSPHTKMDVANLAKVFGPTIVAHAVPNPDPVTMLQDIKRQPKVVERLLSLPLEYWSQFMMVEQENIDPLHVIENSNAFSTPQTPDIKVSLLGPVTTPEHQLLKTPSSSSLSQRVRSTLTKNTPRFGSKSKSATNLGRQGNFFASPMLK

[18] = target: T4, DNA repair protein RAD52 homolog (Homo sapiens, UniProt P43351); type: functional, biochemical
T4 sequence (P43351 whole entry): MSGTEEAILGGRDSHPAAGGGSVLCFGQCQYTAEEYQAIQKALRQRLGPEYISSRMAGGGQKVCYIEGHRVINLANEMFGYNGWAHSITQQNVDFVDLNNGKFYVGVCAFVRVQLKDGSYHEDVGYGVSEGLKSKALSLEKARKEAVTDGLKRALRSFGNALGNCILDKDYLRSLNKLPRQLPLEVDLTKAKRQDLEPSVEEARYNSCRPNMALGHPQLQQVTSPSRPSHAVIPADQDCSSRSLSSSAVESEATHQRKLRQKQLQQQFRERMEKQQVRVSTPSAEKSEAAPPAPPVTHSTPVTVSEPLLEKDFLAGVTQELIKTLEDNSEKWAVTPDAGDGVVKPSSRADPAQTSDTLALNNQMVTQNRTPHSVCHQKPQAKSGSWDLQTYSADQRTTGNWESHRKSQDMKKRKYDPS

[19] = target: DNA repair and recombination protein RAD54-like (Homo sapiens, UniProt Q92698); assay: inhibitors of human RAD54 branch migration, confirmation, biochemical, fluorescence, cherry-picked samples, dose series (AID 651657); type: functional
[20] = target: T5, Induced myeloid leukemia cell differentiation protein Mcl-1 (Homo sapiens, UniProt Q07820); type: functional
[21] = target: T6, Small ubiquitin-related modifier 1 (Homo sapiens, UniProt P63165); assay: inhibitors of SUMO1 partner interactions, dose response, biochemical, FRET (AID 624383); type: functional; settings: read-out: IC50_Mean
[22] = target: Bcl-2-like protein 1 (Homo sapiens, UniProt Q07817); assay: BCL-XL inhibitors, dose response, selectivity assay for MCL1 inhibitor project, biochemical, fluorescence polarization, 1536-well (AID 2218)
[23] = target: T7, Tyrosine-protein phosphatase non-receptor type 7 (Homo sapiens, UniProt P35236); assay: inhibitors of human HePTP phosphatase, […], biochemical, absorbance, leukemia target (AID 521); type: functional
T7 sequence (P35236 whole entry): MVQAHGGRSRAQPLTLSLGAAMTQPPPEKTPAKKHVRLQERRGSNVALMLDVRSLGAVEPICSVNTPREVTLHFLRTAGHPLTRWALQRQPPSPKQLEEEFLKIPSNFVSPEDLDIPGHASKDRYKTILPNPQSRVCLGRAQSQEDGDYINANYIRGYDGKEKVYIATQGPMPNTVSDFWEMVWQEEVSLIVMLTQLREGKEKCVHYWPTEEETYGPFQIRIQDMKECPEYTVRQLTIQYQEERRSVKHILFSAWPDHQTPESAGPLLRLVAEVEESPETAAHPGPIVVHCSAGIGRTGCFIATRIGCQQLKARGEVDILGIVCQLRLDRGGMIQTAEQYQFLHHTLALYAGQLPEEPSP

[24] = target: T5, Induced myeloid leukemia cell differentiation protein Mcl-1; assay: MCL1-BIM BH3 interaction inhibitors, dose response, biochemical, fluorescence polarization, BIM-BH3 peptide, 1536-well (AID 2217)
[25] = target: T6, Small ubiquitin-related modifier 1; assay: inhibitors of SUMO1 peptide binding, dose response, biochemical, fluorescence polarization, uHTS hits (AID 624382); type: functional; settings: read-out: IC50_Mean
[26] = growth suppression of beta-catenin-knockout colon cells, dose response, cell-based, HCT116, human colon tumor (AID 1045); type: functional;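 note: HCT116 colon tumor cells with beta catenin knocked out; cells exposed to compound for 60 hours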
[27] = insulin promoter down-regulators in MIN6 cells, imaging, high-content screening, mouse beta cells (AID 1628); type: functional
[28] = growth suppression of PTEN-null colon cells, dose response, cell-based, HCT116 PTEN knockout (AID 1047); type: functional;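 note: HCT116 colon tumor cells with PTEN knocked out; cells exposed to compound for 60 hours before readout; potency for loss of cell viability measured by luminescence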
[29] = cytotoxicity in MIN6 insulinoma cells, dose response, cytotoxicity control, cell-based, mouse insulinoma (AID 2122); type: functional;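 note: confirmatory high-throughput counterscreen run to flag cytotoxic compounds; mouse MIN-6 beta cells carrying an insulin promoter eGFP reporter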
[30] = target: T8, Ubiquitin-conjugating enzyme E2 N (Homo sapiens, UniProt P61088); type: functional;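 note: Dose-response confirmation in a TR-FRET assay detecting UBC13-driven polyubiquitin chain formation, inhibition measured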
T8 sequence (P61088 whole entry): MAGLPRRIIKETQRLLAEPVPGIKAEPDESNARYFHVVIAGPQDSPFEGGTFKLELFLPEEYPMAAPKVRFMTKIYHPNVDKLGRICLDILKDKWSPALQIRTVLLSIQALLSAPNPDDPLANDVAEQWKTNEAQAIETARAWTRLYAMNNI

[31] = microbe, parasite or virus in culture; type: functional; settings: Mycobacterium tuberculosis

DNA repair and recombination protein RAD54-like, sequence (Q92698 whole entry): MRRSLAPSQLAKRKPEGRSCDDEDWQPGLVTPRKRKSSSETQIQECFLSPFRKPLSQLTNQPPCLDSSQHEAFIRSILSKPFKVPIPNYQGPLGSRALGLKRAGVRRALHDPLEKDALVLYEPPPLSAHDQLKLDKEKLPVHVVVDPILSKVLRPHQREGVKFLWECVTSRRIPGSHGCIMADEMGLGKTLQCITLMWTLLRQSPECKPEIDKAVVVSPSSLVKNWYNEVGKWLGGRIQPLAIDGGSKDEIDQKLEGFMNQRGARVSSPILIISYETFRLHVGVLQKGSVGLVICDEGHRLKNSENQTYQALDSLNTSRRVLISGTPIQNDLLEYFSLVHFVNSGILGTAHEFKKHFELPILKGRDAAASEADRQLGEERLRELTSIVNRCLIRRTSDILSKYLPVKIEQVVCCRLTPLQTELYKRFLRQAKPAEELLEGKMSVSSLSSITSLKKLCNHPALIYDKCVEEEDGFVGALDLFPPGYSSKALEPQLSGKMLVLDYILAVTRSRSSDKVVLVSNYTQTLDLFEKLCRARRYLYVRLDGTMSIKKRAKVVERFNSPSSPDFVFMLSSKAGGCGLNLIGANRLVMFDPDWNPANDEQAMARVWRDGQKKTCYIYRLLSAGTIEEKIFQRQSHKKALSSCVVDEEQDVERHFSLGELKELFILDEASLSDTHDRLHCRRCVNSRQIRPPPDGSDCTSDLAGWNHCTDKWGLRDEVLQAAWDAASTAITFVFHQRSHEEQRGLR
Steroidogenic factor 1, sequence (Q13285 whole entry): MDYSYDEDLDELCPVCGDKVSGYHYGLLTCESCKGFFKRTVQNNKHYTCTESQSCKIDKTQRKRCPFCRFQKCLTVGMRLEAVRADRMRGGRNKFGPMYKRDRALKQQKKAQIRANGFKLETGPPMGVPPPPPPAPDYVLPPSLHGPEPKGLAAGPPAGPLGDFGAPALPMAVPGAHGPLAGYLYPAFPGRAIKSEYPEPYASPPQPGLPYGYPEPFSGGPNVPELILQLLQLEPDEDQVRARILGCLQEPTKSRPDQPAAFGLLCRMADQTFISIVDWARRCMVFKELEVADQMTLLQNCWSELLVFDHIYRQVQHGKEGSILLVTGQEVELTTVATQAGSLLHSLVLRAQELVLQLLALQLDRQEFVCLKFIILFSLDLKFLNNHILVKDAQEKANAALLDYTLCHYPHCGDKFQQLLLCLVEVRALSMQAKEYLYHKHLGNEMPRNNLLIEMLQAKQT
Protein Wnt-3a, sequence (P27467 whole entry): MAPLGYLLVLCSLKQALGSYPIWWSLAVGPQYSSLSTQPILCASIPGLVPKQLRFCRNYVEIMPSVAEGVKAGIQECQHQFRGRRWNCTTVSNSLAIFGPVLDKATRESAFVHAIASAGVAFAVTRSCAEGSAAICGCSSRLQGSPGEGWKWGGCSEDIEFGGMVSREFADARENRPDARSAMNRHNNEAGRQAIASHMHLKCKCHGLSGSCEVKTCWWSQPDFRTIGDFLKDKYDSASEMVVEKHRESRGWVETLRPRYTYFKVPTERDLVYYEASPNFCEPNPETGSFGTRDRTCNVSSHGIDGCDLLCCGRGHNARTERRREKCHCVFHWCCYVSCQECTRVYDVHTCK
T6 sequence (P63165 whole entry): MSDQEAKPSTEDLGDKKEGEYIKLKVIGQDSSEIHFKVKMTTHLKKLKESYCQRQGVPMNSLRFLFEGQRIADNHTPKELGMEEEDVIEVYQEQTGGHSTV
Nuclear receptor subfamily 5 group A member 2, sequence (O00482 whole entry, the tested form may be a part): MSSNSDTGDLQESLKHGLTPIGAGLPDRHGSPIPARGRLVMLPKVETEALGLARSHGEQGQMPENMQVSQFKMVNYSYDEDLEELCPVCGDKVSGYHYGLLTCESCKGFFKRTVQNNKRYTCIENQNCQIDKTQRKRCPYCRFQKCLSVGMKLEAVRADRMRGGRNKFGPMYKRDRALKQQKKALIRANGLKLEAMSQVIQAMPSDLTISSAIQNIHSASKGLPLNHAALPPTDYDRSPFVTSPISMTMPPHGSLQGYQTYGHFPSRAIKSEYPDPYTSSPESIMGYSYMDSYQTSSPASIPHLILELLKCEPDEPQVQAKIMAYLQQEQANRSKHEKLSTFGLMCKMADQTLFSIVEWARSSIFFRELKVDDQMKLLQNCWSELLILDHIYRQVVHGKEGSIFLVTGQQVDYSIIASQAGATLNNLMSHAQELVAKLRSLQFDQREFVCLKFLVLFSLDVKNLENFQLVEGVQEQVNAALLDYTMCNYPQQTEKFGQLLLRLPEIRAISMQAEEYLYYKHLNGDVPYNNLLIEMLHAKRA
T5 sequence (Q07820 whole entry): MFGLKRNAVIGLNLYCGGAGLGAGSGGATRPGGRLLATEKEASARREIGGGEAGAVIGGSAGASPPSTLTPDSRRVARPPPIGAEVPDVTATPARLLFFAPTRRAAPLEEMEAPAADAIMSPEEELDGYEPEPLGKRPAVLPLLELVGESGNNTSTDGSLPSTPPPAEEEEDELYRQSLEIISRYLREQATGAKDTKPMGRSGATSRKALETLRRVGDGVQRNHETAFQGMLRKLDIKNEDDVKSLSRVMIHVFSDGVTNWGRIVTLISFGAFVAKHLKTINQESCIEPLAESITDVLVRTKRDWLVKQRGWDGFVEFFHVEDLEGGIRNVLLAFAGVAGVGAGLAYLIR
DNA (cytosine-5)-methyltransferase 1, sequence (P26358 whole entry): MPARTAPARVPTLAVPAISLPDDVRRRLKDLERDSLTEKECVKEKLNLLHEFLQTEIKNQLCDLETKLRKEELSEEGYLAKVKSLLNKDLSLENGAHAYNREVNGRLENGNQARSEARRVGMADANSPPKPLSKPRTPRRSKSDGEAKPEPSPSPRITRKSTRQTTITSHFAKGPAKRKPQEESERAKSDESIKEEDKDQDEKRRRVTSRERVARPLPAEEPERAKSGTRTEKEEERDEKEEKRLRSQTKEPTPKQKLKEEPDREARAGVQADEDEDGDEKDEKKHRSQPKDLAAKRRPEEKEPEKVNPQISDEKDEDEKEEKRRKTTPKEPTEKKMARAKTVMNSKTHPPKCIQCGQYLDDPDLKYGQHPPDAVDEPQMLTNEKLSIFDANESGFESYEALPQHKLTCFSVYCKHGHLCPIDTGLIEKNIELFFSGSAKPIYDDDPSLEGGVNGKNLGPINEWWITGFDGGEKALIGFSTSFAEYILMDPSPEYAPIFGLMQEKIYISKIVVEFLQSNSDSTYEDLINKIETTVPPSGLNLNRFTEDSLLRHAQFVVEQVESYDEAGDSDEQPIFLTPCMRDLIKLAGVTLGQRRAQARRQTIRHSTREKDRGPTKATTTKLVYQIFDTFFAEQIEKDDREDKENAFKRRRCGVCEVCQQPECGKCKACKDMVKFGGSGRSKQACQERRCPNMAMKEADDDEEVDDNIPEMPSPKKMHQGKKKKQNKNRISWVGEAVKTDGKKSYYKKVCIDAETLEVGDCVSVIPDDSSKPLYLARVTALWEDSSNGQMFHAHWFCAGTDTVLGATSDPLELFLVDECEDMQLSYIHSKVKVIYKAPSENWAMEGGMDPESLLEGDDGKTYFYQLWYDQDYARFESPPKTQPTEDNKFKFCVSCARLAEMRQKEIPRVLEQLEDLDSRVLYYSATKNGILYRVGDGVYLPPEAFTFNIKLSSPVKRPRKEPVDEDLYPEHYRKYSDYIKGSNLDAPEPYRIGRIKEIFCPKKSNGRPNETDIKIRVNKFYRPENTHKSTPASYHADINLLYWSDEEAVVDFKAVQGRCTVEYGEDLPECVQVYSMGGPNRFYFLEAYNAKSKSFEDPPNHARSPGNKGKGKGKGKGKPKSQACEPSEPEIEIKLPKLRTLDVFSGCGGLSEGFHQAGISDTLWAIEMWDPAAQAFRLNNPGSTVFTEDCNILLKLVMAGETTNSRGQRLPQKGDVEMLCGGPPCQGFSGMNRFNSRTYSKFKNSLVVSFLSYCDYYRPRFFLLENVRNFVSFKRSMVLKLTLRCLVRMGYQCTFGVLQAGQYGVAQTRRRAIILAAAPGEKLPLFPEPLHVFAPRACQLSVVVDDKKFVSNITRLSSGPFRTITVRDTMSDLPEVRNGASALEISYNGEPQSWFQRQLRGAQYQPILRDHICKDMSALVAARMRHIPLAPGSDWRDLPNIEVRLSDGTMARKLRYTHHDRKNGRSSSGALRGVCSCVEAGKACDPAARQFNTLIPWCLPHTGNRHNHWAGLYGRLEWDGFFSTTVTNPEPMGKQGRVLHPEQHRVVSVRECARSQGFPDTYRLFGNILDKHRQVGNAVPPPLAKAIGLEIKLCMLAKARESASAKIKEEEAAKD
ADP-ribosylation factor GTPase-activating protein 1, sequence (Q62848 whole entry): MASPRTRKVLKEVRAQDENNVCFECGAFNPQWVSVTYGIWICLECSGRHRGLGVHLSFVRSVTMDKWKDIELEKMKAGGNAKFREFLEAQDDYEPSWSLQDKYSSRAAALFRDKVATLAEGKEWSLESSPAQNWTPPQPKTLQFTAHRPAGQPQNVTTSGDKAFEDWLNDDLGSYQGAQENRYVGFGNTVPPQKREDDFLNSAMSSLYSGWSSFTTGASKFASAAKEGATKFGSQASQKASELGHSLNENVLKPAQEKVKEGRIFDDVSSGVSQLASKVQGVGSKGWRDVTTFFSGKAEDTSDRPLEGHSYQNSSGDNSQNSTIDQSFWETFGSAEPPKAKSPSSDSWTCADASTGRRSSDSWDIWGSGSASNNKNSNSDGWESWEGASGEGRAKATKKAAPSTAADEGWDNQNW
Dual specificity protein phosphatase 3, sequence (P51452 whole entry): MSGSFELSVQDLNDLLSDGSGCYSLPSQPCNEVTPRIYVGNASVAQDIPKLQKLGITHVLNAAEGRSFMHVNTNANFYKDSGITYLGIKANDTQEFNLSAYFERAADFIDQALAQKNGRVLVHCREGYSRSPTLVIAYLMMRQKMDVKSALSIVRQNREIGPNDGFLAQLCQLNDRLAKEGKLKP

## Cc1cc(O)nc(SCC(=O)/C=C2\N(C)c3ccccc3C2(C)C)n1
[1]
  IC50: 50 µM (inactive)

## Cc1cc(/C=C2/SC(=S)N(c3ccc([N+](=O)[O-])cc3)C2=O)c(C)n1-c1cccnc1
[2]
  EC50: 0.915 µM (active)
[3]
  AC50: 0.862 µM (active)
[1]
  IC50: 8.94 µM (active)
[4]
  EC50: > 60 µM (inconclusive)

## CC(C)OCCCN=C(S)Nc1ccc(S(N)(=O)=O)cc1
[5]
  IC50: 1.08 µM (active)
[6]
  IC50: 0.771 µM (active)
[7]
  IC50: 53 µM (inactive)

## Nc1c(Cl)ncnc1Nc1ccc(C(=O)O)cc1
[8]
  IC50: 12.5 µM (inactive)
[9]
  IC50: 83.2 µM (inactive)
[10]
  IC50: 3.93 µM (active)

## Cc1cc(NS(=O)(=O)c2ccc(NC(=S)NC(=O)c3cccc(S(=O)(=O)N(C)C)c3)cc2)no1
[11]
  IC50: 46.6 µM (inactive)

## Cc1cc(Br)ccc1NC(=O)c1ccc(-n2cncn2)c([N+](=O)[O-])c1
[8]
  IC50: 119 µM (inactive)
[9]
  IC50: 83.3 µM (inactive)
[10]
  IC50: 5.79 µM (active)

## COc1ccccc1Oc1nnnn1-c1ccc(C(N)=O)cc1
[12]
  IC50: 7.85 µM (active)
[13]
  IC50: 35.9 µM (inactive)
[14]
  IC50: 35.9 µM (inactive)

## COCCCn1c(C)cc(C(=O)CN2c3cccc4cccc(c34)S2(=O)=O)c1C
[11]
  IC50: 60.2 µM (inactive)

## C/C=C/C=C/C(=O)C1=C(O)[C@]2(C)C(=O)C(C)(O)[C@H]1[C@H]([C@]1(C)OC(O)=C(C)C1=O)[C@H]2C(=O)/C=C/C=C/C (some centres undefined)
[15]
  IC50: 5.92 µM (active)
[16]
  IC50: 5.25 µM (active)
[17]
  IC50: 122 µM (active)

## Cc1c(OCC(=O)NC2CC(C)(C)NC(C)(C)C2)ccc2c1oc(=O)c1ccccc12
[18]
  AC50: 27.1 µM (active)
[19]
  AC50: 22.4 µM (active)

## O=C(COC(=O)c1ccc[n+]([O-])c1)Nc1ccc([N+](=O)[O-])cc1Cl
[12]
  IC50: 4.98 µM (active)
[13]
  IC50: 35.9 µM (inactive)
[14]
  IC50: 3.98 µM (active)

## Cn1cnnc1SCC(=O)Nc1sc2c(c1C(N)=O)CCC2
[15]
  IC50: 2.77 µM (active)
[20]
  IC50: 3.16 µM (active)
[21]
  IC50: 13.7 µM (active)
[22]
  IC50: > 36.3 µM (not active)
[23]
  IC50: 2.43 µM (active)
[24]
  IC50: 8.58 µM (active)
[25]
  IC50: > 66.6 µM (inactive)

## CCN(CC)CCCNc1nc2cc(OC)c(OC)cc2c2nc(-c3ccccc3)nn12
[2]
  EC50: 0.709 µM (active)
[19]
  AC50: 2.03 µM (active)
[26]
  EC50: 4.58 µM (active)
[4]
  EC50: 12 µM (active)
[16]
  IC50: > 99 µM (inactive)
[27]
  IC50: 1.11 µM (active)
[28]
  EC50: 7.1 µM (active)
[29]
  IC50: 2.07 µM (active)
[30]
  IC50: > 20 µM (inactive)
[31]
  CC50: 19.9 µM (active)
